Where a name gives a salt, the structure may show the parent alone.
What was measured:
Assay type in all cases: in vivo
[1] = tested on: LPS-induced NFkB activation; assay: NFkB-luciferase reporter mice assay (LPS-induced endotoxemia); details: for inhibition of LPS-induced NFkB activation: 20 nanomoles test compound i.p. 30 minutes prior to LPS 2 mg/kg, 6 hrs, IVIS luciferase imaging
Procedure: (§1) Compound preparation and delivery. All 65 identified compounds were received in solid form and stored at 4° C. until use. Stock solutions of each compound were made by dissolving the appropriate amount of each compound in dimethyl sulfoxide (DMSO) to yield a concentration of 10 mM. Immediately prior to injection into experimental animals, the compounds were diluted to an experimental concentration of 100 uM in phosphate-buffered saline (PBS). Total concentration of DMSO in the final diluted drug was 1%. Compounds were closely examined to insure that no precipitate formed prior to injection and were stored on ice until injection. All compounds were given via intraperitoneal (i.p.) injection in a total volume of 200 ul using a 1 cc syringe and 27 gauge needle. In all experiments listed below, the compounds were delivered to the experimental mice 30 minutes prior to injection with lipopolysaccharide (LPS) to induce endotoxemia. Control animals not receiving compound received 1% DMSO dissolved in PBS. Following drug injection, the mice were observed closely in their cages for signs of immediate toxicity or adverse reaction to the drug, including but not limited to piloerection, tachypnea, bleeding, abnormal or aggressive behavior, signs of altered mental status, and level of activity.
(§2) Induction of endotoxemia. All mice were housed and cared for at the Rangos Research Center, Children's Hospital of Pittsburgh (Pittsburgh, Pa.). All experiments were approved by the Children's Hospital of Pittsburgh Animal Care Committee and by the Institutional Review Board of the University of Pittsburgh. Swiss Webster (CFW) and NFkB-luciferase reporter mice were obtained from The Jackson Laboratory. Throughout the course of all experiments, mice were housed 4 per cage with access to food, water, and standard bedding. Endotoxemia was induced in all experiments by i.p. injection of LPS (Escherichia coli 0111:B4 purified by gel filtration chromatography, >99% pure, Sigma-Aldrich) at a dose of 2 mg/kg for 6 hours. At the end of each experiment, all animals were euthanized by CO2 hypoxia and cervical dislocation.
NFkB-luciferase reporter mice assay. NFkB-luciferase reporter mice, in which the […], were subjected to endotoxemia with or without pretreatment with experimental compounds. The experimental compounds treated by this assay were compounds 1-6, with compounds 1-3 tested first and compounds 4-6 tested later. For both experiments, the mice were 6 weeks old on the date of the experiment. […] After whole body imaging, an additional injection of luciferin is given and animals were euthanized, organs were harvested, and the extent of NFkB activation within various tissues was further analyzed by an additional luminescence image of the individual organs. […]

iNOS mRNA = assay: CFW-NEC mouse model (formula feeding), iNOS mRNA levels; details: 1 mg/kg, i.p., once daily for the first four days of the five day model; relative to RPLO
Description: Inducible nitric oxide synthase (iNOS) is associated with necrotizing enterocolitis (NEC) in human infants. In a second set of experiments, the CFW-NEC mouse model system for NEC was used to evaluate the effect of various compounds from TABLES 1 and 2 above on iNOS mRNA levels. A model system for NEC was induced in newborn mouse pups by formula feeding, where control animals were breast-fed (Sodhi et al., 2010, Gastroenterol. 138(1):185-196; Richardson et al., 2010, Gastroenterol. 139(3):904-917). […] Note that RPLO stands for 505 ribosomal subunit protein L15, an acknowledged housekeeping gene, which means that it is a constitutive gene expressed at relatively constant levels by all cells and is thus used as a reference for comparing other genes which may vary under experimental conditions. In this same model system, levels of TLR4 mRNA levels were also evaluated. […] In contrast, the level of TLR4 was not increased in FF animals treated with C34 (1 mg/kg, i.p. once daily for the first four days of the five day model) and indeed mRNA levels were 30 percent below normal (see FIG. 14).

TLR4 = target: T1, TLR4 (Mus musculus, UniProt Q9JHF9+Q9QUK6); assay: CFW endotoxemia assay (observation of behavior and phenotype after LPS); details: CFW mice, 20 nanomoles compound i.p. 30 minutes prior to LPS 2 mg/kg, 6 hours; for Observation (Compound “Hits”): listed as “Hits”; for Observation (Compound “Negatives”): listed as “Negatives”
T1 construct: Swiss Webster (CFW) and NFkB-luciferase reporter mice were obtained from The Jackson Laboratory; tissue The Jackson Laboratory; host or cells: whole live Swiss Webster (CFW) mice
T1 sequence (Q9QUK6 26-835): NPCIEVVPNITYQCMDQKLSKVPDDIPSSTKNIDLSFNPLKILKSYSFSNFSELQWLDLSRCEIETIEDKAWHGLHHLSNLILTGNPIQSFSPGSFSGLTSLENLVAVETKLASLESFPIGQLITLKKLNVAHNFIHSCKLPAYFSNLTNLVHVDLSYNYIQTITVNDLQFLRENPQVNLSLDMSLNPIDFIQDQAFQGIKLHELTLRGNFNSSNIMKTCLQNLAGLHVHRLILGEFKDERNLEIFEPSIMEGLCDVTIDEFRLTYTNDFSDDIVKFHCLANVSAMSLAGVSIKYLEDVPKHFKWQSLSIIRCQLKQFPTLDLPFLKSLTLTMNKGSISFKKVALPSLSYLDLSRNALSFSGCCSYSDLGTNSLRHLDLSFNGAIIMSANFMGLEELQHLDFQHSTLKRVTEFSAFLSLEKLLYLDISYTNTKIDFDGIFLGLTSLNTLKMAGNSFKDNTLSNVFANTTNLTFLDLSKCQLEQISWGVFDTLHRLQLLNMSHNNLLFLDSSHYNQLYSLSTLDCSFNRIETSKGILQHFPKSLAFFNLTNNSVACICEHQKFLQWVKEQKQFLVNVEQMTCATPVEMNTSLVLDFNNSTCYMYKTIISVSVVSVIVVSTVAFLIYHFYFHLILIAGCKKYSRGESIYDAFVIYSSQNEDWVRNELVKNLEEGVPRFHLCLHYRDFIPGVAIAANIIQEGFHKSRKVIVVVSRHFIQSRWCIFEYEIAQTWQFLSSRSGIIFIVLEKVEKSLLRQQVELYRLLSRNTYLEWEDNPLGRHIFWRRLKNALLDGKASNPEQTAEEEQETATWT
T1 sequence (Q9JHF9 19-160): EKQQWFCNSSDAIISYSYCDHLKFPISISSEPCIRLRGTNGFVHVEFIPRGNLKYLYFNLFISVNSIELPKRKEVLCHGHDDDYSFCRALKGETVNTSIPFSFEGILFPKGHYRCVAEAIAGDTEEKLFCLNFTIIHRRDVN
Procedure: as §1, §2
CFW endotoxemia assay. In order to effectively screen the entire compound list, the remaining compounds (7-60) were screened in a model of endotoxemia using CFW mice. Three separate experiments were performed: First, Compound 7 along with a repeat of compound 4 (n=3 mice per compound, mice age 5 weeks) were tested. Controls were saline injection alone (n=1), LPS 2 mg/kg 6 hrs (n=2). Second, compounds 3, 4, 6, 8-32 were tested (n=1 mouse each, 3 week old mice). Controls were saline injection alone (n=1), LPS 2 mg/kg 6 hrs (n=2), LPS 10 mg/kg 6 hrs (n=2), Bay 11 pretreatment 20 mg/kg for 30 minutes prior to LPS 2 mg/kg 6 hrs. Third, compounds 8, 16, 33-60 were tested (n=1 mouse each, 3 week old mice). Controls were saline injection alone (n=1), LPS 2 mg/kg 6 hrs (n=2), Bay 11 pretreatment 20 mg/kg for 30 minutes prior to LPS 2 mg/kg 6 hrs. Following 6 hours of endotoxemia, mice from the second and third experiments were observed within their cages and videotaped to document behavior and phenotypic differences to assess for an inhibitory effect of compound pretreatment on the effects of LPS. Mice were identified by a number previously placed using permanent marker on their tails. The degree of piloerection, tachypnea, location in the cage (center of cage versus corners), degree of activity, and behavior relative to other animals was observed and documented via video for each mouse.
Less activity, tachypnea, and piloerection are considered symptomatic of endotoxemia, so a decrease in these is consistent with TLR inhibition by the administered compound. Note that compounds listed as negatives may still be T4Ics at other concentrations or conditions.

CCCCCCCCCCCCCCCCCCCCCCCCCC(=O)NC(COC1OC(CO)C(O)C(O)C1O)C(O)C(O)CCCCCCCCCCCCCC [Compound 2, N-{(1S,2S,3R)-1-[(beta-L-glycero-hexopyranosyloxy)methyl]-2,3-dihydroxyheptadecyl}hexacosanamide]
inhibition of LPS-induced NFkB activation [1]: exception

CC(=O)NC1C(OP(=O)(O)O)OC(CO)C(O)C1O (stereo not drawn) [Compound 4, 3-acetamido-4,5-dihydroxy-6-(hydroxymethyl)tetrahydro-2H-pyran-2-yl dihydrogen phosphate, sodium salt]
inhibition of LPS-induced NFkB activation ([1]; phosphate, sodium salt): greatest inhibitory activity

CC(=O)N[C@H]1C(O)O[C@H](CO)[C@H](O)[C@@H]1O.O (stereo partly drawn) [Compound 16, 2-(acetylamino)-2-deoxy-D-galactopyranose hydrate]
NFκB signalling (luciferase imaging) ([1]; LPS 2 mg/kg plus compound 1 mg/kg i.p.): reduced NFκB signalling

CC(=O)NC1C(O)OC(CO)[C@@H](O[C@@H]2OC(CO)[C@H](O)C(O)C2O)C1O (stereo partly drawn) [Compound 27, 2-(acetylamino)-2-deoxy-4-O-hexopyranosylhexopyranose]
increase of iNOS mRNA level in formula-fed (FF) pups (iNOS mRNA): much less

C=CCO[C@@H]1O[C@H](CO)[C@@H](O)[C@H](O)[C@H]1NC(C)=O [Compound 50, allyl 2-(acetylamino)-2-deoxy-beta-D-glycero-hexopyranoside]
Observation (Compound “Hits”) (TLR4): More active

CC(=O)NC1C(O)OC(CO)C(O)C1O [Compound 52, 2-(acetylamino)-2-deoxy-beta-D-glycero-hexopyranose]
Observation (Compound “Hits”) (TLR4): More active, less piloerection

CCO[C@@H]1O[C@H](CO)[C@@H](O)[C@H](O)[C@H]1NC(C)=O [Compound 54, ethyl 2-(acetylamino)-2-deoxy-beta-D-glycero-hexopyranoside]
Observation (Compound “Hits”) (TLR4): Less piloerection, less tachypnea

CCO[C@@H]1O[C@H](COC(C)=O)[C@@H](OC(C)=O)[C@H](OC(C)=O)[C@H]1NC(C)=O [Compound 55, ethyl 3,4,6-tri-O-acetyl-2-(acetylamino)-2-deoxy-beta-D-glycero-hexopyranoside]
Observation (Compound “Hits”) (TLR4): Less piloerection, less tachypnea, more active

CCCCCCCCCCCCCCCCOC1OC(COC(C)=O)C(OC(C)=O)C(OC(C)=O)C1NC(C)=O (stereo not drawn) [Compound 61, [5-acetamido-3-acetyloxy-2-(acetyloxymethyl)-6-hexadecoxy-oxan-4-yl] acetate]
Observation (Compound “Hits”) (TLR4): Less piloerection, less tachypnea

COC1OC(COC(C)=O)C(OC(C)=O)C(OC(C)=O)C1NC(C)=O (stereo not drawn) [Compound 62, (5-acetamido-3,4-diacetyloxy-6-methoxy-oxan-2-yl)methyl acetate]
Observation (Compound “Negatives”) (TLR4): Nearly static, little movement, rigors

CCOC1OC(CO)C(O)C(O)C1NC(C)=O (stereo not drawn) [Compound 63, N-[2-ethoxy-4,5-dihydroxy-6-(hydroxymethyl)oxan-3-yl]acetamide]
Observation (Compound “Hits”) (TLR4): More mobile, less piloerection

(2R,3S,4R,5R,6R)-5-acetamido-2-(acetoxymethyl)-6-(((3aR,5R,5aS,8aS,8bR)-2,2,7,7-tetramethyltetrahydro-3aH-bis[1,3]dioxolo[4,5-b:4′,5′-d]pyran-5-yl)methoxy)tetrahydro-2H-pyran-3,4-diyl-diacetate [Compound 38]
Observation (Compound “Negatives”) (TLR4): Less active
